Format in all cases: cell-based
One assay has as its system Streptococcus pyogenes. Briefly: MIC / bacterial growth assay, Streptococcus pyogenes. The note with it: for inhibition at 100 µM: read-out: inhibition in the S. pyogenes procedure. The procedure:
S. pyogenes [American Type Culture Collection (ATCC) #14289] is used in this bacterial growth assay. To initiate the exponential phase of bacterial growth prior to the assay, a sample of bacteria is grown for 6 hours in Todd Hewitt Broth (Difco 0492-17-6) at 37° C. then re-inoculated into fresh media and grown overnight at 37° C. The bacterial cells are collected by centrifugation for 10 minutes at 3200 rpm, diluted and absorbance read at 595 nm. Bacteria diluted in 233 Todd-Hewitt Broth ([…]) are added to the compound mixtures (75 μL) for a total volume of 150 μL. The assays are performed in 96-well microplates with approximately 1×10^4 colony forming units (CFU) per well. The plates are incubated at 37° C. and growth monitored over a 24 hour period by measuring the optical density at 595 nm using a BioRad model 3550 UV microplate reader. The percentage of growth relative to a well containing no compound is determined. Ampicillin and tetracycline antibiotic controls are concurrently tested in each screening assay.
(§1) Compounds are assayed in duplicate at a single dose. Compounds which show inhibitory activity are re-tested in duplicate at multiple doses to determine minimum inhibitory concentration (MIC).

The next assay has as its system C. albicans. Briefly: antifungal MIC assay, C. albicans. The note with it: Candida albicans, 24 h; MIC ASSAYS table; unit inferred.
The subject of another assay is E. coli imp-. Briefly: MIC / bacterial growth assay, E. coli imp-. The settings on record: Escherichia coli. Here is the method: The strain E. coli imp- obtained from Spencer Benson (Sampson, B. A., Misra, R. & Benson, S. A., Genetics, 1989, 122, 491-501, Identification and characterization of a new gene of Escherichia coli K-12 involved in outer membrane permeability) is used in this bacterial growth assay. To initiate the exponential phase of bacterial growth prior to the assay, a sample of bacteria is grown for 6 hours in Mueller Hinton II Broth (BBL 12322) at 37° C. then re-inoculated into fresh media and grown overnight at 37° C. The bacterial cells are collected by centrifugation for 10 minutes at 3200 rpm, diluted and absorbance read at 595 nm. Bacteria diluted in 2×Mueller Hinton II Broth (75 μL) are added to the compound mixtures (75μL) for a total volume of 150 μL. The assays are performed in 96-well microplates with approximately 1×10^4 colony forming units (CFU) per well. The plates are incubated at 37° C. and growth monitored over a 24 hour period by measuring the optical density at 595 nm using a BioRad model 3550 UV microplate reader. The percentage of growth relative to a well containing no compound is determined. Ampicillin and tetracycline antibiotic controls are concurrently tested in each screening assay.
as §1

Converted amounts (≈) assume the structure as drawn.

Method for C. albicans: Yeast diluted in 2×YM Broth (75 μL) are added to the compound mixtures (75 μL) for a total volume of 150 μL. The assays are performed in 96-well microplates with approximately 1×10^4 cells per well. The plates are incubated at 25° C. and growth monitored at 48 hours by visual inspection of yeast growth. Amphotericin B anti-fungal control is concurrently tested in each screening assay.
Compounds are assayed in duplicate at multiple doses to determine minimum inhibitory concentration (MIC).

For `N=C(N)NCc1cccc(CN(CCNCCCO)Cc2cccc(C(F)(F)F)c2)n1` [Example 142], the inhibition at 100 µM in the assay with Streptococcus pyogenes stood at 95%.

For the compound `OCCCN(CCN(Cc1ccccc1)Cc1cccc(CN(Cc2ccccc2)Cc2ccccc2)n1)Cc1ccccc1` [Compound 9, 2-(N,N-dibenzylaminomethylene)-6-{[N1-[benzyl(methyl-1-yl)]-N2-(benzyl)-1-propanol-3-yl]-1,2-diaminoethane}pyridine], the MIC is 1 to 5 µM (≈ 0.599 to 2.99 µg/mL) in the assay with C. albicans; 5 to 25 µM (≈ 2.99 to 15 µg/mL) in the assay on Streptococcus pyogenes (24 h, MIC ASSAYS table, first round or parent libraries, unit inferred, read-out: MIC S. pyrogenes); 5 to 25 µM (≈ 2.99 to 15 µg/mL) with E. coli imp- (24 h, read-out: MIC E. coli).

Take `NC(=O)CN(Cc1cccc(C(F)(F)F)c1)Cc1cccc(CN(CCNCCCO)Cc2cccc(C(F)(F)F)c2)n1` [Example 137]: the inhibition at 100 µM with Streptococcus pyogenes was determined as 95%; in the assay on E. coli imp- (read-out: inhibition in the E. coli procedure) it was 87%.

The term inhibition denotes the share of the control response that was lost under treatment. The term MIC denotes the smallest concentration in the dilution series that meets the test's criterion for growth inhibition.
